These results are taken from patent publication US20060270666A1, “Quinoxaline derivatives as neutrophil elastase inhibitors and their use” (priority 2003, published 2006).

This experiment concerns the target T1, Human Neutrophil Elastase (HNE) (Homo sapiens, UniProt P08246).
T1 construct: Human Neutrophil Elastase (HNE) purified from serum (Calbiochem art. 324681); purchased Calbiochem 324681; host or cells: natural human material (serum)
T1 sequence (P08246 30-267): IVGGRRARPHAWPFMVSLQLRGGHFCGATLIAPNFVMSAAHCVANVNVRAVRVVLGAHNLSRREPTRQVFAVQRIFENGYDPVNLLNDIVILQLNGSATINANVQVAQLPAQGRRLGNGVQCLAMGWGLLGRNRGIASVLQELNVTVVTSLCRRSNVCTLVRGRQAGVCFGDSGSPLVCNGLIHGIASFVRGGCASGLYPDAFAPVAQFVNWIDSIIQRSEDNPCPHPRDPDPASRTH
The experiment can be described thus: Human Neutrophil Elastase Quenched-FRET Assay. In kind it is biochemical. The note with it: HNE purified from serum; substrate MeOSuc-AAPV-AMC; 15 min pre-incubation, 30 min incubation at room temperature; read-out: Inhibition of Human Neutrophil Elastase IC50. How it is done: Human Neutrophil Elastase Quenched-FRET Assay
The assay uses Human Neutrophil Elastase (HNE) purified from serum (Calbiochem art. 324681; Ref. Baugh, R. J. et al., 1976, Biochemistry. 15, 836-841). HNE was stored in 50 mM NaOAc, 200 mM NaCl, pH 5.5 with added 30% glycerol at −20° C. The protease substrate used was Elastase Substrate V Fluorogenic, MeOSuc-AAPV-AMC (Calbiochem art. 324740; Ref. Castillo, M. J. et al., 1979, Anal. Biochem. 99, 53-64). The substrate was stored in DMSO at −20° C. The assay additions were as follows: Test compounds and controls were added to black 96-well flat-bottom plates (Greiner 655076), 1 μL in 100% DMSO, followed by 30 μL HNE in assay buffer with 0.01% TritonX-100. The assay buffer constitution was: 100 mM Tris (pH 7.5) and 500 mM NaCl. The enzyme and the compounds were incubated at room temperature for 15 minutes. Then 30 μl substrate in assay buffer was added. The assay was stopped after 30 minutes incubation at room temperature by adding 60 μl stop solution (140 mM acetic acid, 200 mM sodium monochloroacetate, 60 mM sodium acetate, pH 4.3). Fluorescence was measured on a Wallac 1420 Victor 2 instrument at settings: Excitation 380 nm, Emission 460 nm. IC50 values were determined using Xlfit curve fitting using model 205.
One may read the IC50 as the point on the concentration scale where inhibition reaches its midpoint. For the compound `N#CC1CCC(CNC(=O)c2nc3ccccc3n(-c3cccc(C(F)(F)F)c3)c2=O)CC1` (stereo not drawn) [Example 2.10, N-[(4-Cyanocyclohexyl)methyl]-3-oxo-4-[3-(trifluoromethyl)phenyl]-3,4-dihydroquinoxaline-2-carboxamide], the IC50 worked out at 248 nM.

`O=C(NCCc1ccc(F)cc1)c1nc2ccccc2n(-c2cccc(C(F)(F)F)c2)c1=O` [Example 2.20, N-[2-(4-Fluorophenyl)ethyl]-3-oxo-4-[3-(trifluoromethyl)phenyl]-3,4-dihydroquinoxaline-2-carboxamide]: the 50% inhibitory concentration (IC50) worked out at 573 nM.

In the case of `Cc1ccc(CNC(=O)c2nc3ccccc3n(-c3cccc(C(F)(F)F)c3)c2=O)cc1` [Example 2.12, N-(4-Methylbenzyl)-3-oxo-4-[3-(trifluoromethyl)phenyl]-3,4-dihydroquinoxaline-2-carboxamide], the half-inhibitory concentration (IC50) was found to be 226 nM.
